Assay results published in ChEMBL document CHEMBL3352684, “Discovery of MK-3697: a selective orexin 2 receptor antagonist (2-SORA) for the treatment of insomnia” (Bioorg Med Chem Lett, 2014).
Values after ≈ are worked out from the molar mass of the structure shown.

Experiments:
CHO [1] = assay: Selectivity ratio of Ki for human OX1R I408V mutant expressed in CHO cells to Ki for human OX2R expressed in CHO cells; type: cell-based
Orexin receptor type 2 [2] = biological target: T1, Orexin receptor type 2 (Homo sapiens, UniProt O43614); assay: Displacement of (S)-N-(2-(1H-pyrrol-1-yl)phenyl)-1-(2-([3H]-1-methyl-1H-benzo[d]imidazol-2-ylthio)acetyl)pyrrolidine-2-carboxamide from human OX2R expressed in CHO cells after 3 hrs by topcount analysis; type: cell-based
T1 sequence (O43614 whole entry): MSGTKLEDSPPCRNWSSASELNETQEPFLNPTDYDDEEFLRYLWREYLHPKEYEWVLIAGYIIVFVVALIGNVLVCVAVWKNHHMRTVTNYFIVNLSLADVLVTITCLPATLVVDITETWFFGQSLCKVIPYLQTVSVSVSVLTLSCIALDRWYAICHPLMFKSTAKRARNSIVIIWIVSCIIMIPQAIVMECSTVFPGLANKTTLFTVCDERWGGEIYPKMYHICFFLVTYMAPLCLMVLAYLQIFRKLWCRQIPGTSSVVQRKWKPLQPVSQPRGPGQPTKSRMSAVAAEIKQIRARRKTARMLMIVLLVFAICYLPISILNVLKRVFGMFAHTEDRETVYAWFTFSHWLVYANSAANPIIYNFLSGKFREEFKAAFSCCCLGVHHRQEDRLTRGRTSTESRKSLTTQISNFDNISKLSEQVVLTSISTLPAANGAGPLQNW

CHO [3] = assay: Selectivity ratio of IC50 for human OX1R Ile408Val mutant expressed in CHO cells to IC50 for human OX2R expressed in CHO cells; type: cell-based
Orexin receptor type 2 [4] = biological target: T1, Orexin receptor type 2; assay: Antagonist activity at human OX2R expressed in CHO cells assessed as inhibition of Ala-6,12-orexinA-induced effect after 5 mins by FLIPR assay; type: cell-based
[5] = biological target: T2, Orexin/Hypocretin receptor type 1 (Homo sapiens, UniProt O43613, I408V); assay: Displacement of N-cyclobutyl-5-methyl-N-(2-([3H]-1-methyl-1H-benzo[d]imidazol-2-ylthio)ethyl)-2-(2H-1,2,3-triazol-2-yl)benzamide from human OX1R I408V mutant expressed in CHO cells by topcount analysis; type: cell-based
[6] = biological target: T2, Orexin/Hypocretin receptor type 1; assay: Antagonist activity at human OX1R I408V mutant expressed in CHO cells assessed as inhibition of Ala-6,12-orexinA-induced effect after 5 mins by FLIPR assay; type: cell-based
[7] = Clearance in dog with cassette dosing; type: ADME, organism-based, Canis lupus familiaris; conditions: in vivo
CYP3A4 [8] = biological target: T3, CYP3A4 (Homo sapiens, UniProt P08684); assay: Ratio of Kinact to Ki for CYP3A4 (unknown origin); type: ADME
Cytochrome P450 3A4 = Cytochrome P450 3A4 (Homo sapiens, UniProt P08684); assay: (§1) Time dependent inhibition of CYP3A4 (unknown origin); type: ADME
CYP3A4 [9] = biological target: T3, CYP3A4; assay: as §1; type: ADME; conditions: human
[10] = Solubility of the compound in buffer at pH 7; type: physicochemical
[11] = Solubility of the compound in buffer at pH 2; type: physicochemical
[12] = Drug degradation in buffer assessed as compound remaining at pH 2 after 24 hrs; type: physicochemical; conditions: for remaining at 24 h: pH 2, read-out: Stability

T2 sequence (O43613 whole entry I408V): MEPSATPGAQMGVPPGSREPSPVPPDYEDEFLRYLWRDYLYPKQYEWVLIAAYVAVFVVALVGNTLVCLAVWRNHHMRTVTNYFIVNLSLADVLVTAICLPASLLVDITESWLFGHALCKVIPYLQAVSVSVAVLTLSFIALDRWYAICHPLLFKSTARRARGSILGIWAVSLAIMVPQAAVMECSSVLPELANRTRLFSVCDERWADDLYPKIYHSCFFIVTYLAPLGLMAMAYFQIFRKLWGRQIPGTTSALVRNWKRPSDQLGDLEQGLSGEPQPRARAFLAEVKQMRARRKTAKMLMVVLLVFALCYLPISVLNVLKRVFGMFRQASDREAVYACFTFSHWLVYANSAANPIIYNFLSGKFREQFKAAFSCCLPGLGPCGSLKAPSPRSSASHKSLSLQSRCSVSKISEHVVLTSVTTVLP
T3 sequence (P08684 whole entry): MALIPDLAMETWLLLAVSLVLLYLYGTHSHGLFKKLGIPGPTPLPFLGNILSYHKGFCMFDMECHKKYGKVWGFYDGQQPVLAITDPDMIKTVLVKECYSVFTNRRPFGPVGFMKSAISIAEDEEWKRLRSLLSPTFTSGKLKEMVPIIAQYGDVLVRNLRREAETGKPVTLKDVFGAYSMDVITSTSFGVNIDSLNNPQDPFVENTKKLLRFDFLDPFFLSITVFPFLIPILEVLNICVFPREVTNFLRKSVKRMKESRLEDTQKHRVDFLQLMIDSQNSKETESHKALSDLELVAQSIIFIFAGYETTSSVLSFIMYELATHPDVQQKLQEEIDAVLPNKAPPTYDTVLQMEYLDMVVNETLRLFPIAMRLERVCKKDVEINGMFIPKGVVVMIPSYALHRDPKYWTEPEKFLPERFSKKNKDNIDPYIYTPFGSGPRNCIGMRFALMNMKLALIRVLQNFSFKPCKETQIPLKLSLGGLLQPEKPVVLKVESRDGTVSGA
Cytochrome P450 3A4, sequence (P08684 whole entry): as above

Compound	Ratio Ki (CHO [1])	Ki (Orexin receptor type 2 [2]) [µM]	Ratio IC50 (CHO [3])	IC50 (Orexin receptor type 2 [4]) [µM]	Ki [5] [µM]	IC50 [6] [µM]	clearance [7] [mL/min/kg]	kinact/KI (CYP3A4 [8]) [M⁻¹ s⁻¹]	Ki (Cytochrome P450 3A4) [µM]	kinact (CYP3A4 [9]) [s⁻¹]	solubility [10] [µM]	solubility [11] [µM]	remaining at 24 h [12] [%]	Stability ([12]; pH 2, 24 h)
COc1ccc(CNC(=O)c2cc(-c3cncc(C)c3)ncc2N2CCCC2)nc1OC	3110	0.0045	> 270	0.037	14	10								
COc1ccc(CNC(=O)c2cc(-c3cncc(C)c3)ncc2-c2ccnnc2)nc1OC	202	0.193	> 10	1.45	39	15								
COc1ccc(CNC(=O)c2cc(-c3cncc(C)c3)ccc2-c2ccccc2)nc1OC	3330	0.0003	110	0.014	1	1.54	51							
COc1ccc(CNC(=O)c2cc(-c3cncc(C)c3)nnc2-c2ccccc2)nc1OC	1360	0.011	> 59	0.17	15	> 10								
COc1ccc(CNC(=O)c2cc(-c3cncc(Cl)c3)cnc2-c2ccccn2)nc1OC [MK-1064]								200	9.5	0.00183				
COc1ccc(CNC(=O)c2cc(-c3cncc(C)c3)ncc2-c2ccccn2)nc1OC	5640	0.0014	129	0.036	7.9	4.65								
COc1ccc(CNC(=O)c2cc(-c3cncc(C)c3)ncc2-c2cccc(F)c2)nc1OC	4440		122	0.016	4	1.95	18							
COc1ccc(CNC(=O)c2nc(-c3cncc(C)c3)cnc2-c2ccccc2)nc1OC	6070		> 645	0.031	8.5	> 20	37							
COc1ccc(CNC(=O)c2nc(-c3cncc(C)c3)ccc2-c2ccccc2)nc1OC	56	0.043			2.4		28							
COc1ccc(CNC(=O)c2cc(-c3cncc(C)c3)cnc2-c2ccccc2)nc1OC	2400	0.0003	154	0.013	0.72	2	27				61 (≈ 26.9 µg/mL)	180 (≈ 79.3 µg/mL)	100	
COc1ccc(CNC(=O)c2sc(-c3cncc(C)c3)nc2-c2cccc(F)c2)nc1OC	86	0.14	> 9	1.06	12	> 10								
COc1ccc(CNC(=O)c2cc(-c3cncc(C)c3)ncc2N2CCC2)nc1OC	1800	0.01	> 120	0.083	18	10	19							
COc1ccc(CNC(=O)c2cc(-c3cncc(C)c3)ncc2-c2ccccc2)nc1OC	5400	0.0005	133	0.021	2.7	2.8	15	217	5.6	0.000217				Stable
COc1ccc(CNC(=O)c2cc(-c3cncc(C)c3)ncc2-c2cncc(F)c2)nc1OC	3270	0.0052	192	0.057	17	10	19							
COc1ccc(CNC(=O)c2cc(-c3cncc(C)c3)ncc2-c2ccccc2F)nc1OC	6140	0.0014	120	0.025	8.6	3	17							
COc1ccc(CNC(=O)c2cc(-c3cncc(C)c3)ncc2N2CCOCC2)nc1OC	20	0.075	> 3	3.5	1.5	10	15							
COc1ccc(CNC(=O)c2nc(-c3cncc(C)c3)ncc2-c2ccccc2)nc1OC		0.011	> 83	0.12	23	> 10	47							
COc1ccc(CNC(=O)c2cc(-c3cncc(C)c3)ncc2-c2cnccn2)nc1OC	4080	0.0076	> 92	0.109	31	10	24							
COc1ccc(CNC(=O)c2cc(-c3cncc(Cl)c3)cnc2-c2ccccc2)nc1OC											10 (≈ 4.61 µg/mL)	16 (≈ 7.37 µg/mL)	100	
COc1ccc(CNC(=O)c2cc(-c3cncc(C)c3)nc3onc(-c4ccccc4)c23)nc1OC	456	0.009	> 24	0.42	4.1	> 10								
COc1ccc(CNC(=O)c2cc(-c3cncc(C)c3)ncc2-c2cnn(C)c2)nc1OC	227	0.0041	> 60	0.167	0.93	10								
